Measurements published in patent publication US20040024231A1, “17Alpha fluoroalkyl steroids, method for producing the same and pharmaceutical compositions containing said compounds” (priority 2000, published 2004).

What follows are molecules tested against T1, androgen receptors (Homo sapiens, UniProt P10275) (assay: receptor binding affinities to the androgen receptors (RBA)). Conditions: receptor binding affinity to the androgen receptors; R 1881 (Methyltrienolone) = 100.
T1 sequence (P10275 1-920): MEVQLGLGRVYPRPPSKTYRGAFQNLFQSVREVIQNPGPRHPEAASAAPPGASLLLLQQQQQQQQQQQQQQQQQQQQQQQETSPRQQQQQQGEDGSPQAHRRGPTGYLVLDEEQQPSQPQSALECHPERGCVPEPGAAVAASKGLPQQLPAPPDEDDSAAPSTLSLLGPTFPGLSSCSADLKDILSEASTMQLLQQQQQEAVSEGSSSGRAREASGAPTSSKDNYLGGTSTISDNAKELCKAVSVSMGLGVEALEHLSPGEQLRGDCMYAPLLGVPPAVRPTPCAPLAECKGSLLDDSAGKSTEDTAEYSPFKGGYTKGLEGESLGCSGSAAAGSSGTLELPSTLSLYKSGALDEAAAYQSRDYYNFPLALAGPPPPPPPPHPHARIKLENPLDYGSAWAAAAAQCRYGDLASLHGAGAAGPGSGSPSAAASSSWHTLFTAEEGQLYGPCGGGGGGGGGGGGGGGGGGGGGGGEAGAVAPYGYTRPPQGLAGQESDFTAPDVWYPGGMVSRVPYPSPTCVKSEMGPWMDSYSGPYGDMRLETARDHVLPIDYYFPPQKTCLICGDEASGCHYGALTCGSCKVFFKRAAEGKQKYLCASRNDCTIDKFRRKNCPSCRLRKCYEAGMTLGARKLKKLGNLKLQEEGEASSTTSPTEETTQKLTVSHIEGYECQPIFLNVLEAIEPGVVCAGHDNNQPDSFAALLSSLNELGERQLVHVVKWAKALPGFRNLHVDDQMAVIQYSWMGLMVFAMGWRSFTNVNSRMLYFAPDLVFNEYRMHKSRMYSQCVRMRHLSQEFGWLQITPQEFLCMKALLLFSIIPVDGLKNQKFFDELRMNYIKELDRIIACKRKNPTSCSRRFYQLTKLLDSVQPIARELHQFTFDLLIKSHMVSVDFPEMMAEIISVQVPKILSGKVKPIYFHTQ
For `CC12CCC3C4CCC(=O)C=C4CCC3C1CCC2(O)C(F)(F)C(F)(F)F` (stereo not drawn) [17β-Hydroxy-17α-pentafluoroethyl-estr-4-en-3-one], the RBA was 21%.
Work on `CC1CC2=CC(=O)CCC2C2CCC3(C)C(CCC3(O)C(F)(F)C(F)(F)F)C12` (stereo not drawn) [17β-Hydroxy-17α-pentafluoroethyl-7α-methyl-estr-4-en-3-one] yielded an RBA of 34%.
`CC12CCC3C4CCC(=O)C(Cl)=C4CCC3C1CCC2(O)C(F)(F)C(F)(F)F` (stereo not drawn) [17β-Hydroxy-17α-pentafluoroethyl-4-chloro-estr-4-en-3-one] showed an RBA of 27%.
Work on `CC12CCC3C4CCC(=O)C(O)=C4CCC3C1CCC2(O)C(F)(F)C(F)(F)F` (stereo not drawn) [17β,4-Dihydroxy-17α-pentafluoroethyl-estr-4-en-3-one] yielded an RBA of 20%.
In the case of `CC12CCC(=O)C(Cl)=C1CCC1C2CCC2(C)C1CCC2(O)C(F)(F)F` (stereo not drawn) [17β-Hydroxy-17α-trifluoromethyl-4-chloro-androst-4-en-3-one], the RBA is reported as 20%.
`CC12CCC3C4CCC(=O)C(O)=C4CCC3C1CCC2(O)C(F)(F)F` (stereo not drawn) [17β,4-Dihydroxy-17α-trifluoromethyl-estr-4-en-3-one] was tested, and the RBA was 15%.
In the case of `C[C@]12CCC(=O)C=C1CC[C@@H]1[C@@H]2CC[C@@]2(C)[C@H]1CC[C@@]2(O)C(F)(F)F` [17β-Hydroxy-17α-trifluoromethyl-androst-4-en-3-one], the RBA is reported as 9.4%.
With `CC1CC2=CC(=O)CCC2C2CCC3(C)C(CCC3(O)C(F)(F)F)C12` (stereo not drawn) [17β-Hydroxy-17α-trifluoromethyl-7α-methyl-estr-4-en-3-one] the RBA was 40%.
`CC12CCC(=O)C=C1CCC1C2C(O)CC2(C)C1CCC2(O)C(F)(F)F` (stereo not drawn) [17β,11β-Dihydroxy-17α-trifluoromethyl-androst-4-en-3-one] showed an RBA of 8.6%.
`C[C@]1(O)CC[C@H]2[C@@H]3CCC4=CC(=O)CCC4=C3C=C[C@@]21C` [R 1881 (Methyltrienolone), Methyltrienolone, reference compound] showed an RBA of 100%.
`CC1CC2=CC(=O)CCC2(C)C2CCC3(C)C(CCC3(O)C(F)(F)F)C12` (stereo not drawn) [17β-Hydroxy-17α-trifluoromethyl-7α-methyl-androst-4-en-3-one] gave an RBA of 30%.
For `CC12CCC3C4CCC(=O)C(Cl)=C4CCC3C1CCC2(O)C(F)(F)F` (stereo not drawn) [17β-Hydroxy-17α-trifluoromethyl-4-chloro-estr-4-en-3-one], the RBA was 41%.
